Source: article PMC9343605, “Structural insights into ligand recognition and selectivity of somatostatin receptors” (Cell Research, 2022)
Each block holds one compound with its values, some of them ahead of it.

How the values were obtained:
[1] = target: SSTR4 (Homo sapiens, UniProt P31391, T215A); test: cAMP accumulation assay (agonist-induced inhibition of forskolin-stimulated cAMP), SSTR4, HEK293F; assay type: cell-based; set-up: expressed in transfected cells; host or cells: HEK293F; details: SSTR4 mutant T215^5.42A; mean ± SEM;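 note: transiently transfected cells incubated 40 min at room temperature with 4 µM forskolin and graded ligand, cAMP read by LANCE Ultra TR-FRET kit, values normalized to WT receptor per ligand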
Protocol: (§1) HEK293F cells were transiently transfected with WT or mutant SSTR2/SSTR4 using transfection reagent (PEI MAX 2000, Polysciences) and incubated at 37 °C in 5% CO2. Forty-eight hours after transfection, cells were centrifuged and resuspended in stimulation buffer (Hanks’ balanced salt solution (HBSS) supplemented with 5 mM HEPES, 0.5 mM IBMX and 0.1% (w/v) bovine serum albumin (BSA), pH 7.4) to a density of 200,000 cells/mL and added to 384-well white plates (PerkinElmer, 1000 cells/well). cAMP accumulation was measured by a LANCE Ultra cAMP kit (PerkinElmer) according to the manufacturer’s instructions. In brief, transfected cells were incubated for 40 min in stimulation buffer with 2.5 μL forskolin (SSTR2: 2 μM; SSTR4: 4 μM) and gradient concentration of ligand at RT. The reactions were stopped by addition of lysis buffer containing 5 μL Eu-cAMP tracer and 5 μL ULight-anti-cAMP. Plates were then incubated for 60 min at RT and time-resolved FRET signals were measured at 620 nm and 665 nm by an EnVision multilabel plate reader (PerkinElmer). Data were analyzed in GraphPad PRISM 8 and all values were normalized to the WT for each ligand. All outcomes were repeated at least three times.
(§2) aMutants represent that mutations were introduced separately into the WT receptors and
(§3) transiently expressed in HEK 293F cells.
(§4) bThe EC50 ratio was shown as EC50(mutant)/EC50(WT), indicating the shift between the WT
(§5) and mutant curves, reflecting the effect of the mutations on receptor signaling.
(§6) cData are shown as mean ± S.E.M. from at least three independent experiments
(§7) performed in technical triplicate. One-way ANOVA was performed followed by
(§8) Dunnett’s post-test and compared with WT. The P value was defined as: *P<0.05;
(§9) d The span is defined as the window between the maximal agonists response (Emax) and
(§10) e Sample size; the number of independent experiments performed in technical triplicate.
(§11) f Receptor expression level of HEK 293F cells was determined independently by flow
(§12) cytometry with anti-FLAG antibody and shown as per cent compared to the WT.

[2] = target: SSTR4 (Homo sapiens, UniProt P31391); test: as above; assay type: cell-based; set-up: expressed in transfected cells; host or cells: HEK293F; details: WT SSTR4, mean ± SEM
Protocol: as §1, §2, §3, §4, §5, §6, §7, §8, §9, §10, §11, §12

[3] = target: SSTR4 (Homo sapiens, UniProt P31391, F275A); test: as above; assay type: cell-based; set-up: expressed in transfected cells; host or cells: HEK293F; details: SSTR4 mutant F275^6.51A; mean ± SEM
Protocol: as §1, §2, §3, §4, §5, §6, §7, §8, §9, §10, §11, §12

[4] = target: SSTR4 (Homo sapiens, UniProt P31391, D126A); test: as above; assay type: cell-based; set-up: expressed in transfected cells; host or cells: HEK293F; details: SSTR4 mutant D126^3.32A; mean ± SEM
Protocol: as §1, §2, §3, §4, §5, §6, §7, §8, §9, §10, §11, §12

[5] = target: SSTR4 (Homo sapiens, UniProt P31391, V264F); test: as above; assay type: cell-based; set-up: expressed in transfected cells; host or cells: HEK293F
Protocol: as §1, §2, §3, §4, §5, §6, §7, §8, §9, §10, §11, §12

[6] = target: SSTR4 (Homo sapiens, UniProt P31391, Y301A); test: as above; assay type: cell-based; set-up: expressed in transfected cells; host or cells: HEK293F; details: SSTR4 mutant Y301^7.43A; mean ± SEM
Protocol: as §1, §2, §3, §4, §5, §6, §7, §8, §9, §10, §11, §12

[7] = target: SSTR4 (Homo sapiens, UniProt P31391, Q279A); test: as above; assay type: cell-based; set-up: expressed in transfected cells; host or cells: HEK293F; details: SSTR4 mutant Q279^6.55A; mean ± SEM
Protocol: as §1, §2, §3, §4, §5, §6, §7, §8, §9, §10, §11, §12

[8] = target: SSTR4 (Homo sapiens, UniProt P31391, N199A); test: as above; assay type: cell-based; set-up: expressed in transfected cells; host or cells: HEK293F; details: SSTR4 mutant N199^ECL2A; mean ± SEM
Protocol: as §1, §2, §3, §4, §5, §6, §7, §8, §9, §10, §11, §12

[9] = target: SSTR4 (Homo sapiens, UniProt P31391, M130A); test: as above; assay type: cell-based; set-up: expressed in transfected cells; host or cells: HEK293F; details: SSTR4 mutant M130^3.36A; mean ± SEM
Protocol: as §1, §2, §3, §4, §5, §6, §7, §8, §9, §10, §11, §12

[10] = target: SSTR4 (Homo sapiens, UniProt P31391, Y276A); test: as above; assay type: cell-based; set-up: expressed in transfected cells; host or cells: HEK293F; details: SSTR4 mutant Y276^6.52A; mean ± SEM
Protocol: as §1, §2, §3, §4, §5, §6, §7, §8, §9, §10, §11, §12

[11] = test system: SSTR2; test: Whole cell binding assay, SSTR2, competition with 125I-Tyr11-SST14, CHO-K1; details: for IC50 ratio: IC50(mutant)/IC50(WT);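 for all read-outs here: Cell-bound radioactivity in lysed CHO-K1 cells read by scintillation counting, each mutation introduced singly into the WT receptor, at least three independent experiments run in technical triplicate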
Protocol: (§13) For SSTR2 and SSTR4, CHO-K1 cells were cultured in F12 medium with 10% FBS and seeded at a density of 30,000 cells/well in Isoplate-96 plates (PerkinElmer). Twenty-four hours after transfection with the WT or mutant SSTR2/SSTR4, CHO-K1 cells were washed twice and incubated with blocking buffer (F12 supplemented with 25 mM HEPES and 0.1% (w/v) BSA, pH 7.4) for 2 h at 37 °C. […] Following incubation, cells were washed three times with ice-cold PBS and lysed by 50 μL lysis buffer (PBS supplemented with 20 mM Tris-HCl, 1% Triton X-100, pH 7.4). The radioactivity was subsequently counted (counts/min, CPM) in a scintillation counter (MicroBeta[2] Plate Counter, PerkinElmer) using a scintillation cocktail (OptiPhaseSuperMix, PerkinElmer). Data were analyzed by nonlinear regression using GraphPad PRISM 8.
(§14) aMutants represent that all mutations were introduced separately into the WT receptors
and expressed in CHO K1 cells.
(§15) bThe IC50 ratio was shown as IC50(mutant)/IC50(WT), indicating the shift between the WT
(§16) and mutant curves, reflecting the effect of the mutations on ligand binding.
(§17) cData are shown as mean ± S.E.M. form at least three independent experiments
as §7
(§18) Dunnett’s post-test and compared with WT.
as §9, §10

[12] = target: SSTR2 (Homo sapiens, UniProt P30874, Q126A); test: as above; details: SSTR2 mutant Q126^3.36A; mean ± SEM
Protocol: as §13, §14
and expressed in CHO K1 cells.
as §15, §16, §17, §7, §18, §9, §10

[13] = target: SSTR2 (Homo sapiens, UniProt P30874, F294A); test: as above; details: SSTR2 mutant F294^7.35A; mean ± SEM
Protocol: as §13, §14
and expressed in CHO K1 cells.
as §15, §16, §17, §7, §18, §9, §10

[14] = target: SSTR2 (Homo sapiens, UniProt P30874, D122A); test: as above; details: SSTR2 mutant D122^3.32A; mean ± SEM
Protocol: as §13, §14
and expressed in CHO K1 cells.
as §15, §16, §17, §7, §18, §9, §10

[15] = target: SSTR2 (Homo sapiens, UniProt P30874, Y205A); test: as above; details: SSTR2 mutant Y205^5.35A; mean ± SEM
Protocol: as §13, §14
and expressed in CHO K1 cells.
as §15, §16, §17, §7, §18, §9, §10

[16] = target: SSTR2 (Homo sapiens, UniProt P30874, T194A); test: as above; details: SSTR2 mutant T194^ECL2A; mean ± SEM
Protocol: as §13, §14
and expressed in CHO K1 cells.
as §15, §16, §17, §7, §18, §9, §10

[17] = target: SSTR2 (Homo sapiens, UniProt P30874); test: as above; details: WT SSTR2, mean ± SEM
Protocol: as §13, §14
and expressed in CHO K1 cells.
as §15, §16, §17, §7, §18, §9, §10

[18] = target: T1, SSTR2 (Homo sapiens, UniProt P30874, F275A); test: as above; details: SSTR2 mutant F275^6.54A; mean ± SEM
Protocol: as §13, §14
and expressed in CHO K1 cells.
as §15, §16, §17, §7, §18, §9, §10

[19] = target: T1, SSTR2; test: cAMP accumulation assay (agonist-induced inhibition of forskolin-stimulated cAMP), SSTR2, HEK293F; assay type: cell-based; set-up: expressed in transfected cells; host or cells: HEK293F; details: SSTR2 mutant F275^6.54A; mean ± SEM;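 note: transiently transfected cells exposed to 2 µM forskolin and a ligand concentration series for 40 min at room temperature in IBMX-containing HBSS, then cAMP quantified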
Protocol: as §1, §2, §3, §4, §5, §6, §7, §8, §9, §10, §11, §12

[20] = test system: SSTR2; details: cited from earlier work

T1 sequence (P30874 whole entry F275A): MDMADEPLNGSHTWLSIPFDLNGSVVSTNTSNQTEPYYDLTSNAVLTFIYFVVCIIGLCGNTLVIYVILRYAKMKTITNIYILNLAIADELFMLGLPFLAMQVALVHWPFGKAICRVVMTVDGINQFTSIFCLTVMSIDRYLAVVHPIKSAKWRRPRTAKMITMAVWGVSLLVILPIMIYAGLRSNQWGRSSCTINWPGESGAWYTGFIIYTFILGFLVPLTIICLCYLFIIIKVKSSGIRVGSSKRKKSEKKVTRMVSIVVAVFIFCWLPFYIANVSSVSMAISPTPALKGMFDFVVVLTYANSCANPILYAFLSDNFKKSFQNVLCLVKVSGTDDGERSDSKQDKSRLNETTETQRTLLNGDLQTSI
Chain of SSTR2 (Homo sapiens, UniProt P30874) (P30874 whole entry): as the sequence (P30874 whole entry F275A) above, with A275F counted along it
Chain of SSTR4 (Homo sapiens, UniProt P31391, V264F) (P31391 1-328 V264F): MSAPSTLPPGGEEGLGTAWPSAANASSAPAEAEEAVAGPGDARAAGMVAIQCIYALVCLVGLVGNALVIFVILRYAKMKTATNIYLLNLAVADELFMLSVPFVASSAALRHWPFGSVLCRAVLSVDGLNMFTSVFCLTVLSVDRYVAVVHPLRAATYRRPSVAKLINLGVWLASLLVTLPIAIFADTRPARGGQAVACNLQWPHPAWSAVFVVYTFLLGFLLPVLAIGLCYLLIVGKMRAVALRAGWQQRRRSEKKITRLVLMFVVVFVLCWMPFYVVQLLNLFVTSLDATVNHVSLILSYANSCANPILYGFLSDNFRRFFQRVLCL
Chain of SSTR4 (Homo sapiens, UniProt P31391, Y276A) (P31391 whole entry Y276A): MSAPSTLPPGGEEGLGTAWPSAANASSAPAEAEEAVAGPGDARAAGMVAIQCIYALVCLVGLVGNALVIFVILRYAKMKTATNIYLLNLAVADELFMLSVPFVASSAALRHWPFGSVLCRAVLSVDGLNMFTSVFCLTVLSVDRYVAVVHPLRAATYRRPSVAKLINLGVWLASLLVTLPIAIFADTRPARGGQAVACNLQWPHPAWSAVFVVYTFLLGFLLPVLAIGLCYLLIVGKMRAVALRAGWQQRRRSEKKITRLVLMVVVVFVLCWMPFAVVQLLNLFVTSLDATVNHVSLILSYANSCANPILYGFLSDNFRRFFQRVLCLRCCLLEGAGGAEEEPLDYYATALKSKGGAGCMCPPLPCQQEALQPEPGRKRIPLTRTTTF
Chain of SSTR2 (Homo sapiens, UniProt P30874, T194A) (P30874 whole entry T194A): as the sequence (P30874 whole entry F275A) above, with T194A, A275F counted along it
Chain of SSTR4 (Homo sapiens, UniProt P31391) (P31391 whole entry): as the sequence (P31391 whole entry Y276A) above, with A276Y counted along it
Chain of SSTR4 (Homo sapiens, UniProt P31391, M130A) (P31391 whole entry M130A): as the sequence (P31391 whole entry Y276A) above, with M130A, A276Y counted along it
Chain of SSTR4 (Homo sapiens, UniProt P31391, T215A) (P31391 whole entry T215A): as the sequence (P31391 whole entry Y276A) above, with T215A, A276Y counted along it
Chain of SSTR4 (Homo sapiens, UniProt P31391, Y301A) (P31391 whole entry Y301A): as the sequence (P31391 whole entry Y276A) above, with A276Y, Y301A counted along it
Chain of SSTR4 (Homo sapiens, UniProt P31391, Q279A) (P31391 whole entry Q279A): as the sequence (P31391 whole entry Y276A) above, with A276Y, Q279A counted along it
Chain of SSTR2 (Homo sapiens, UniProt P30874, Y205A) (P30874 whole entry Y205A): as the sequence (P30874 whole entry F275A) above, with Y205A, A275F counted along it
Chain of SSTR4 (Homo sapiens, UniProt P31391, N199A) (P31391 whole entry N199A): as the sequence (P31391 whole entry Y276A) above, with N199A, A276Y counted along it
Chain of SSTR2 (Homo sapiens, UniProt P30874, Q126A) (P30874 whole entry Q126A): as the sequence (P30874 whole entry F275A) above, with Q126A, A275F counted along it
Chain of SSTR4 (Homo sapiens, UniProt P31391, D126A) (P31391 whole entry D126A): as the sequence (P31391 whole entry Y276A) above, with D126A, A276Y counted along it
Chain of SSTR2 (Homo sapiens, UniProt P30874, F294A) (P30874 whole entry F294A): as the sequence (P30874 whole entry F275A) above, with A275F, F294A counted along it
Chain of SSTR4 (Homo sapiens, UniProt P31391, F275A) (P31391 whole entry F275A): as the sequence (P31391 whole entry Y276A) above, with F275A, A276Y counted along it
Chain of SSTR2 (Homo sapiens, UniProt P30874, D122A) (P30874 whole entry D122A): as the sequence (P30874 whole entry F275A) above, with D122A, A275F counted along it

Span [1]: 92±5 % of WT
pEC50 ± SEM [1]: 9.85±0.14
pEC50 ± SEM ([2]; HEK293F, at least three independent experiments): 9.73±0.08
Span ([2]; window between Emax and vehicle): 100±3 % of WT
Span [3]: 22±7 % of WT
Span [4]: 23±28 % of WT
EC50 ([5]; Construct 4 SSTR4 (V264F, C-terminal truncation)): 30 pM
Span ([5]; Construct 4 SSTR4, mean ± SEM): 106±5 % of WT
pEC50 ± SEM ([5]; Construct 4 SSTR4, mean ± SEM): 10.46±0.13
Span [6]: 64±7 % of WT
pEC50 ± SEM [6]: 7.02±019
Span [7]: 98±6 % of WT
pEC50 ± SEM [7]: 9.57±0.17
Span [8]: 88±5 % of WT
pEC50 ± SEM [8]: 10.23±0.14
Span [9]: 78±6 % of WT
pEC50 ± SEM [9]: 9.12±0.19
Span [10]: 106±6 % of WT
pEC50 ± SEM [10]: 6.71±0.08
SMILES: Cc1ccc(S(=O)(=O)N[C@@H](CCN)C(=O)N[C@@H](Cc2ccccc2)C(N)=O)c2ccccc12 [J-2156]

IC50 ratio ([11]; Construct 2 SSTR2): 3
IC50 ratio ([11]; SSTR2 mutant F275^6.54A): 9
IC50 ratio ([11]; SSTR2 mutant Q102^2.63A): 152
IC50 ratio ([11]; SSTR2 mutant T194^ECL2A): 12
IC50 ratio ([11]; SSTR2 mutant T212^5.42A): 1
IC50 ratio ([11]; SSTR2 mutant Y205^5.35A): 0.4
IC50 ratio ([11]; WT SSTR2): 1
Span [12]: 15±5 % of WT
Span [13]: 19±2 % of WT
Span [14]: 15±7 % of WT
Span [15]: 70±5 % of WT
pIC50 ± SEM [15]: 8.89±0.15
Span [16]: 22±6 % of WT
pIC50 ± SEM [16]: 7.45±0.59
pKi ± SEM ([17]; competition with 125I-SST-14): 8.53 ± 0.13
Span [17]: 100±6 % of WT
pIC50 ± SEM ([17]; at least three independent experiments): 8.53±0.13
Span [18]: 33±3 % of WT
pIC50 ± SEM [18]: 7.57±0.23
Span [19]: 154±10 % of WT
pEC50 ± SEM [19]: 8.93±0.15
SMILES: C[C@@H](c1c[nH]c2ccccc12)[C@@H](NC(=O)N1CCC(n2c(=O)[nH]c3ccccc32)CC1)C(=O)N[C@@H](CCCCN)C(=O)OC(C)(C)C [L-054,522]
effect of construct modifications on binding and signaling ([11]; crystallization construct vs WT SSTR2): little effect on L-054,522 binding and signaling
selectivity for SSTR2 [20]: at least 3000 fold
